Test results: patent US6313171A, “Method for preventing or treating elevated blood lipid level-related diseases by administering cinnamic acid derivatives” (Korea Research Institute of Bioscience & Biotechnology, priority 1998, dated 2001)

molecular target: T1, HMG-CoA reductase (Rattus norvegicus, UniProt P51639); assay: HMG-CoA reductase activity assay, liver microsomes of the fed rats; type: biochemical; conditions: liver microsomes of rats fed 0.1% in 1% cholesterol diet; Control 0
T1 construct: the supernatant was ultracentrifuged at 100,000×g for 60 minutes to obtain microsomal precipitates; from tissue; host or cells: rat liver microsomes
T1 sequence (P51639 1-887): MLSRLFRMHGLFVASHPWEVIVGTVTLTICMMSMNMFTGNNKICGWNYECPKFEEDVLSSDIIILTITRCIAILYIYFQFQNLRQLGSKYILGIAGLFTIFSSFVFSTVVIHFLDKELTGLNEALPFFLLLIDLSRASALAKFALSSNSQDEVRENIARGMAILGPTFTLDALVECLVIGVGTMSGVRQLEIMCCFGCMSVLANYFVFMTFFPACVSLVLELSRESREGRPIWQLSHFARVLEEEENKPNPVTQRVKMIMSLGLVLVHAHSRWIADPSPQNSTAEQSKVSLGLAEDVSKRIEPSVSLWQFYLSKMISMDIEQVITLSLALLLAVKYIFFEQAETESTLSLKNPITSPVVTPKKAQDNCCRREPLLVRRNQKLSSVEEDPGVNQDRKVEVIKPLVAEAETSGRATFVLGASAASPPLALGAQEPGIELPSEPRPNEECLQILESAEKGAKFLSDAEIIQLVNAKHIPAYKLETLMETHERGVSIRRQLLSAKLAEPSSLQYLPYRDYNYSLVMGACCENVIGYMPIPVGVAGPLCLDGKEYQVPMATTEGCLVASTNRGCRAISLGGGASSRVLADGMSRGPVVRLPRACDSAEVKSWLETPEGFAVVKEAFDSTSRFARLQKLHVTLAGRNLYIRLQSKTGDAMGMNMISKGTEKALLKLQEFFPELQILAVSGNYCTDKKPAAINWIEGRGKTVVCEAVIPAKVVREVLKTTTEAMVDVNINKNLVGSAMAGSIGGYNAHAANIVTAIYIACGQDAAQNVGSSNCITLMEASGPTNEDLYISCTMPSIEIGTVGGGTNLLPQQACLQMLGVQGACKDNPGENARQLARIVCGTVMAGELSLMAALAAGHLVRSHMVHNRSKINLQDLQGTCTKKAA
Method: In order to determine the activity of HMG-CoA reductase, Hulcher's method was employed after some modification (see J. Lipid Res., 14, 625-641(1973)). In this method, the concentration of the coenzyme-A (CoA-SH), which is produced when HMG-CoA is reduced to a mevalonate salt by the action of HMG-CoA reductase, is determined by spectroscopy and the activity of HMG-CoA reductase is calculated therefrom.
3 g of liver tissue taken from each group of rats of Example 2 was washed successively with 100 ml of a cold saline (0.15 M NaCl) and 100 ml of a cold buffer solution A (0.1 M triethanolamine, HCl/0.2 M EDTA/2 mM dithiothreitol (DTT)). The cold buffer solution A was added to the liver tissue in an amount of 2 ml per 1 g of the liver tissue and the mixture was homogenized with a homogenizer. The homogenate was centrifuged at 15,000×g for 15 minutes, and then, the supernatant was ultracentrifuged at 100,000×g for 60 minutes to obtain microsomal precipitates. The precipitates thus obtained was washed with a cold buffer solution A and kept in a 1.5 ml tube at -70° C.
The reaction substrates used in HMG-CoA reductase activity assay were as follows: i) buffer solution B: 0.1 M triethanolamine, HCl/0.02 M EDTA (pH 7.4), ii) HMG-CoA solution: 150 μmoles/culture medium, and iii) NADPH solution: 2 μmoles/culture medium.
The suspension (microsome) was mixed with the reaction substrate and the mixture was placed in a centrifugation tube and reacted at 37° C. for 30 minutes. […]
Then, the reactant was mixed with 20 μl of DTNB buffer solution (3 mM DTNB/0.1 M triethanolamine/0.2 M EDTA, pH 7.4) and the absorbance of the mixture was determined at 412 nm to calculate the amount of CoA-SH (activity of HMG-CoA reductase).
The extent of inhibition of HMG-CoA reductase activity by cinnamic acid derivatives was calculated based on the above result.

Row | Inhibition of HMG-CoA reductase activity [%] | Compound
1 | 44 | O=C(O)/C=C/c1ccc(O)c(O)c1 [3,4-dihydroxycinnamic acid]
2 | 70 | O=C(O)CCc1ccc(O)c(O)c1 [3,4-dihydroxyhydrocinnamic acid]

Row | Compound | Inhibition of HMG-CoA reductase activity [%]
3 | O=C(O)/C=C/c1ccc(O)cc1 [4-Hydroxycinnamic acid, 4-hydroxycinnamic acid] | 31

system: not given; assay: not given; type: in vivo, rabbit (New Zealand White); conditions: rabbits, 1% cholesterol diet plus 0.1% derivative or 1 mg/kg Lovastatin, 8 weeks; Control 2.5 ± 0.4
Method: (§1) 30 three-month-old male New Zealand White rabbits (Yeonam Horticulture and Animal Husbandry College, Korea), each weighing about 2.5 to 2.6 kg, were raised under condition of temperature 20±2° C., relative humidity 55±5%, and photoperiod 12L/12D. The rabbits were divided into 5 groups and 5 groups of rabbits were fed with 5 different diets, i.e., RC4 diet (Oriental Yeast Co., Japan) containing 1% cholesterol (Control group); 1% cholesterol plus 1 mg/kg Lovastatin® (Merck, U.S.A.) (Lovastatin group); 1% cholesterol plus 0.1% 4-hydroxycinnamic acid (4-hydroxycinnamic acid group); 1% cholesterol plus 0.1% 3,4-dihydroxycinnamic acid (3,4-dihydroxycinnamic acid group); and 1% cholesterol plus 0.1% 3,4-dihydroxyhydrocinnamic acid (3,4-dihydroxyhydrocinnamic acid group), respectively. RC4 diet comprises 7.6% moisture, 22.8% crude protein, 2.8% crude fat, 8.8% crude ash, 14.4% crude cellulose and 43.6% soluble nitrogen-free substances. Cinnamic acid derivatives were purchased from Sigma Chemical Co. (St. Louis, Mo.).
(§2) The rabbits were fed for 8 weeks while being allowed free access to the diets and water.
After eight weeks, the rabbits were anesthetized with an intramuscular injection of ketamine (50 mg/kg) in the femoral region and sacrificed. A blood sample was taken from the heart of each rabbit, allowed to stand for 2 hours and centrifuged at 3,000 rpm for 15 minutes and the supernatant serum was separated and stored in a freezer before use.
The chemical analysis of blood was carried out by employing a blood chemical analyzer (CIBA Corning 550 Express, USA) to determine the changes in GOT, GPT, total cholesterol, HDL-cholesterol and triglyceride levels.

Row | Compound | HDL/TC [%]
4 | O=C(O)/C=C/c1ccc(O)c(O)c1 [3,4-dihydroxycinnamic acid] | 3.4 ± 0.4
5 | O=C(O)CCc1ccc(O)c(O)c1 [3,4-dihydroxyhydrocinnamic acid] | 6.3 ± 1.6
6 | O=C(O)/C=C/c1ccc(O)cc1 [4-Hydroxycinnamic acid, 4-hydroxycinnamic acid] | 3.7 ± 1.3

same assay, conditions: rabbits, 1% cholesterol diet plus 0.1% derivative or 1 mg/kg Lovastatin, 8 weeks; Control 50 ± 11

Row | Compound | HDL-C (High density lipoprotein-cholesterol) [mg/dL]
7 | O=C(O)/C=C/c1ccc(O)c(O)c1 [3,4-dihydroxycinnamic acid] | 53 ± 13
8 | O=C(O)CCc1ccc(O)c(O)c1 [3,4-dihydroxyhydrocinnamic acid] | 80 ± 23
9 | O=C(O)/C=C/c1ccc(O)cc1 [4-Hydroxycinnamic acid, 4-hydroxycinnamic acid] | 57 ± 28

same assay, conditions: rabbits, 1% cholesterol diet plus 0.1% derivative or 1 mg/kg Lovastatin, 8 weeks; Control 170 ± 30

Row | Compound | TG (Triglyceride) [mg/dL]
10 | O=C(O)/C=C/c1ccc(O)c(O)c1 [3,4-dihydroxycinnamic acid] | 139 ± 46
11 | O=C(O)CCc1ccc(O)c(O)c1 [3,4-dihydroxyhydrocinnamic acid] | 108 ± 22
12 | O=C(O)/C=C/c1ccc(O)cc1 [4-Hydroxycinnamic acid, 4-hydroxycinnamic acid] | 167 ± 43

same assay, conditions: rabbits, 1% cholesterol diet plus 0.1% derivative or 1 mg/kg Lovastatin, 8 weeks; Control 1995 ± 472

Row | Compound | TC (Total cholesterol) [mg/dL]
13 | O=C(O)/C=C/c1ccc(O)c(O)c1 [3,4-dihydroxycinnamic acid] | 1559 ± 347
14 | O=C(O)CCc1ccc(O)c(O)c1 [3,4-dihydroxyhydrocinnamic acid] | 1256 ± 150
15 | O=C(O)/C=C/c1ccc(O)cc1 [4-Hydroxycinnamic acid, 4-hydroxycinnamic acid] | 1517 ± 417

system: liver; assay: Prevention of hepatic diseases: microscopic fatty liver grading in rabbits; type: in vivo, rabbit (New Zealand White); conditions: FIGS. 2A-2E; control: many cells containing excessive fat around the central vein
Method: as §1, §2

Row | Compound | microscopic features of the liver
16 | O=C(O)/C=C/c1ccc(O)c(O)c1 [3,4-dihydroxycinnamic acid] | almost all liver cells are of a normal shape
17 | O=C(O)CCc1ccc(O)c(O)c1 [3,4-dihydroxyhydrocinnamic acid] | almost all liver cells are of a normal shape
18 | O=C(O)/C=C/c1ccc(O)cc1 [4-Hydroxycinnamic acid, 4-hydroxycinnamic acid] | almost all liver cells are of a normal shape

same assay, conditions: grades 1+(0-25%), 2+(26-50%), 3+(51-75), 4+(76-100%); rabbits, 8 weeks; Control 3.2 ± 0.3

Row | Compound | fatty liver grade (1+ to 4+)
19 | O=C(O)/C=C/c1ccc(O)c(O)c1 [3,4-dihydroxycinnamic acid] | 2.6 ± 0.3
20 | O=C(O)CCc1ccc(O)c(O)c1 [3,4-dihydroxyhydrocinnamic acid] | 2.6 ± 0.3
21 | O=C(O)/C=C/c1ccc(O)cc1 [4-Hydroxycinnamic acid, 4-hydroxycinnamic acid] | 2.7 ± 0.3
